Drawing on publication PMC9249674, “A small-molecule Skp1 inhibitor elicits cell death by p53-dependent mechanism” (iScience, 2022), this text covers inhibition and EC50 for two molecules.

The target in assay [1] is T1, Skp1-ΔSkp2^F−box-peptide interaction (Homo sapiens, UniProt P63208).
T1 construct: recombinantly purify intact (Skp1^WT) and truncate (ΔSkp1^1−140; lacking H8-helix) forms of Skp1; His6; made in house; host or cells: Escherichia coli BL21 (DE3)
Kind of assay: FP-based in vitro competition assay. The format is binding. As to conditions: 200 μM compound, 25 μM Skp1^WT, 500 nM tracer. The procedure:
FP measurements were performed using an EnVision multilabel Reader (Perkin Elmer). […] Lyophilized F-box-FAM peptide was initially dissolved in a Tris buffer (20 mM Tris-HCl pH 9.0, 150 mM NaCl, 2 mM DTT), and then a stock solution of 100 μM was prepared by subsequent dilutions in a FP buffer (20 mM Tris-HCl pH 8.0, 150 mM NaCl, 2 mM DTT, 5% (v/v) glycerol, 0.001% (v/v) Triton X-100). Specific controls groups included free F-box-FAM (tracer), bound F-box-FAM in the presence of protein (Skp1^WT or ΔSkp1^1−140), and FP buffer for every measurement, allowing accurate estimation of specific polarization.
The selected subset of compounds were initially assayed at final concentration of 200 μM. The compounds were incubated at room temperature with Skp1^WT for 1 hr, followed by the addition of the tracer. […] After incubation for another 2 hrs, FP signals was measured on an EnVision multilabel Reader. The FP response was measured in quadruplicates with controls including free F-box-FAM (tracer), bound Skp1^WT-F-box-FAM, and FP buffer. The resultant FP values were plotted as bar graphs using ORIGIN Lab software.
For gradient FP assay, protein samples were mixed with an appropriate concentrations of ligand over the range of several folds. […] The IC50 value of the compound in the gradient-concentration assay was determined with nonlinear regression and fitting using the following equation in GraphPad Prism® v6.0 (San Diego, CA). Y = Bottom + (Top – Bottom)/(1 + 10^X−LogIC50). […] In short, the relationship between the IC50 of the inhibitor and the Ki of the inhibitor depends on the KD of the fluorescent ligand and the concentration of the receptor.

A further assay relates to A549 cells. In words: Cell viability assay (Cell-Titer GLO). As to conditions: Homo sapiens; A549; Lung cancer; 48 h; read-out: Anti-proliferative EC50. The format is cell-based, human. As for the experimental part:
The media was according to culture conditions of each individual cell line (mentioned above). After 12 hrs, compounds were added in a total volume of 5 μL of media (two-fold diluted) to each well with final concentrations from 5 nM to 30 μM. The measurements were conducted 48 hrs after seeding of the cells. Then, 25 μL of Cell-Titer GLO reagent (Promega) was added, and luminescence was measured on an EnSpire multimode plate reader (PerkinElmer), according to the manufacturer’s instructions. The estimated in vitro half-maximal inhibitory concentration (EC50) values were calculated using GraphPad Prism® v6.0 (San Diego, CA) software. The cell viability for A549 cells was also performed for 72- and 96-hrs by using the same experimental conditions as described above.

What is called inhibition is the drop in the measured response relative to a control, in per cent. A lower inhibition goes with little suppression. A word on the EC50: it is the concentration needed to bring the measured effect to its halfway point.

A value given as a limit tells only on which side of the number the result lay.

T1 sequence (P63208 whole entry, stated change not applied, the tested form may be a part): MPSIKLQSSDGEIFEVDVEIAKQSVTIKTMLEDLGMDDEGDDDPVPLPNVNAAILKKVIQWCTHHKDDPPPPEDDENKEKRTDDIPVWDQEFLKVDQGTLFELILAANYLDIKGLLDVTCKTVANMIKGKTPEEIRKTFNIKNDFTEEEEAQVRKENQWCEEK

`COc1ccc(-c2cc(-c3cccc(N)c3)ccn2)cc1` [JH-3, 3-(2-(4-Methoxyphenyl)pyridin-4-yl)aniline]: the inhibition at 200 µM in assay [1] was > 50%.

Take `C/C=C(/C)C(=O)O[C@H]1[C@@H]2[C@H](C)C(=O)O[C@@H]2C[C@@H](C)[C@@H]2C=CC(=O)[C@]21C` [6-OAP, Brevilin A, reference compound]: the half-maximal effective concentration (EC50) in the assay on A549 cells was 14.1 ± 2.25 µM.
